Common to all, as to test: growth of human tumour cells (NCI), 48 h
Assay [1] deals with A498 renal.
Assay [2] deals with CAKI-1 renal.
Assay [3] concerns EKVX NSCLC.
Assay [4] concerns KM12 colon.
The subject of assay [5] is OVCAR-8 ovarian.
The subject of assay [6] is RXF 393 renal.
Assay [7] relates to SK-MEL-28 melanoma.
Assay [8] concerns SK-MEL-5 melanoma.
In assay [9] the test system is SN12C renal.
The subject of assay [10] is SNB-19 CNS.

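All cell lines were grown in 96-well plates and treated with compound for 48 hours. At the GI50, growth is halved. TGI denotes the concentration required for complete inhibition of growth.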

With `COc1c(OC(C)=O)cc2c(OC(C)=O)c1CC(C)CC(OC)C(O)C(C)/C=C(\C)C(OC(N)=O)C(OC)/C=C\C=C(/C)C(=O)N2` (stereo not given), the TGI in assay [1], in assay [2], in assay [3], in [4], in [5] and in assay [6] was over 100 µM each time. The TGI in assay [7], in assay [8], in assay [9] and in assay [10] was over 100 µM throughout.

Consider `CC(=O)NNc1nc(C)c(C(=O)NNC(=O)C(=O)Nc2ccc(C)c(C)c2)s1`, for which the TGI in assay [1], in assay [2], in [3], in assay [4], in assay [5] and in [6] was over 100 µM each time. Further, the TGI in [7], in assay [8], in [9] and in assay [10] was over 100 µM each time.

Consider `Nc1nc(-c2ccccc2)c(-c2ccccc2)c(-c2nc(N)nc(-c3ccccc3)c2-c2ccccc2)n1`, for which the TGI in [1], in assay [2], in assay [3], in assay [4], in assay [5] and in [6] was over 100 µM each time. Also, the TGI in assay [7], in assay [8], in assay [9] and in assay [10] was over 100 µM throughout.

As to `COc1cc(/C=C/C(=O)C(=Cc2ccc(F)c(F)c2)C(=O)/C=C/c2ccc(O)c(OC)c2)ccc1O`, the GI50 in assay [1] is 2 µM; in assay [2], 3.51 µM; in assay [3], 4.61 µM; in [4], 1.64 µM; in assay [5], 2.93 µM; in [6], 1.74 µM. The GI50 is 1.87 µM in [7], 2.18 µM in assay [8], 2.65 µM in assay [9] and 3.54 µM in assay [10]. Moreover, the TGI came to 6.95 µM in [1]; 20.2 µM in assay [2]; 18.3 µM in assay [3]; 3.19 µM in assay [4]; 11.1 µM in [5]; 3.2 µM in assay [6]. Further, the TGI in [7] was determined as 3.8 µM; in assay [8], 5.3 µM; in [9], 7.86 µM; in assay [10] it was 15.9 µM.

For `CCSC1(SCC)CCN(C=NC(C)(C)C)C1`, the TGI in assay [1], in [2], in assay [3], in [4], in assay [5] and in [6] was over 100 µM throughout. Further, the TGI in assay [7], in assay [8], in [9] and in assay [10] was over 100 µM each time.

As to `O=C(c1cc(=O)c2ccc(O)cc2o1)c1ccc(Cl)cc1Cl`, the TGI in assay [1] is over 100 µM; in [2], over 100 µM; in assay [3], 99.3 µM; in [4], over 100 µM; in [5] it was over 100 µM; in assay [6], 98.4 µM. In addition, the TGI was over 100 µM in [7], over 74.6 µM in assay [8], 72.1 µM in assay [9] and over 100 µM in [10].

Consider `CC/C(=N\Nc1nc2ccccc2n1C)c1ccccn1`, for which the GI50 is 0.153 µM in [1]; 0.113 µM in assay [2]; 0.0369 µM in assay [3]; 0.19 µM in assay [4]; 0.0929 µM in assay [5]; 0.193 µM in assay [6]. The GI50 was 0.214 µM in [7], 0.174 µM in assay [8], 0.128 µM in assay [9] and 0.281 µM in assay [10]. Also, the TGI in assay [1] was determined as 0.837 µM; in [2], 1.98 µM; in [3] it was 7.47 µM; in assay [4] it was 11.3 µM; in [5], 14 µM; in assay [6], 1.41 µM. Further, the TGI worked out at 13.5 µM in [7], 1.39 µM in [8], 12.7 µM in assay [9] and 14.4 µM in assay [10].

`O=C1C=C2S[C@H]3C[C@]2(C=C1Br)c1c(c(O)c2c4c1=NCCC=4C=N2)N3`: the TGI in assay [1] is 13.3 µM; in assay [2], 3.07 µM; in assay [3] it was 3.19 µM; in assay [4], 3.83 µM; in assay [5], 1.56 µM; in [6], 0.947 µM. Besides, the TGI in assay [7] was determined as 2.76 µM; in assay [8], 2.38 µM; in [9], 2.48 µM; in [10], 25.7 µM.

`CCOC(=O)C1=C(Nc2ccccc2)OC/C1=N\NC(=O)Cc1ccccc1`: the TGI in [1], in assay [2], in assay [3], in [4], in [5] and in assay [6] was over 50 µM each time. Besides, the TGI in assay [7], in assay [8], in [9] and in assay [10] was over 50 µM in each case.

Regarding `CCOc1ccccc1NC(=O)C(=O)CC(=O)C1=C(C)Nc2ccccc2S1`, the TGI in [1], in [2], in assay [3], in assay [4], in assay [5] and in assay [6] was over 100 µM each time. In addition, the TGI in [7], in [8], in assay [9] and in assay [10] was over 100 µM throughout.

With `N#Cc1ccc(Oc2nccc(-c3c(-c4ccc(F)cc4)ncn3C3CCNCC3)n2)cc1`, the GI50 was over 25 µM in assay [1]; over 25 µM in [2]; over 25 µM in [3]; 18.2 µM in assay [4]; over 16.6 µM in assay [5]; 20.3 µM in [6]. For the same compound, the GI50 in [7] is over 25 µM; in [8], 14.1 µM; in assay [9], over 25 µM; in assay [10] it was over 25 µM. The TGI in assay [1], in [2], in [3], in assay [4], in assay [5] and in [6] was over 25 µM throughout. Besides, the TGI in [7], in assay [8], in assay [9] and in assay [10] was over 25 µM in each case.

For the origin of these results see PubChem BioAssay (NCI).
